Data from patent publication US8450301B2, “Piperazine compounds with a herbicidal action” (BASF SE, priority 2006, dated 2013).

Columns and labels:
Assay type in all cases: in vivo
[1] = system: Echinochloa crus galli (ECHCG); assay: greenhouse experiment, pre-emergence treatment; settings: application rate 3 kg/ha, scale 0 to 100
Excerpt: (§1) The culture containers used were plastic flowerpots containing loamy sand with approximately 3.0% of humus as the substrate. The seeds of the test plants were sown separately for each species.
(§2) For the pre-emergence treatment, the active ingredients, which had been suspended or emulsified in water, were applied directly after sowing by means of finely distributing nozzles. The containers were irrigated gently to promote germination and growth and subsequently covered with transparent plastic hoods until the plants had rooted. This cover caused uniform germination of the test plants, unless this has been impaired by the active ingredients.
(§3) Depending on the species, the plants were kept at 10-25° C. or 20-35° C. The test period extended over 2 to 4 weeks. During this time, the plants were tended, and their response to the individual treatments was evaluated.
(§4) Evaluation was carried out using a scale from 0 to 100. 100 means no emergence of the plants, or complete destruction of at least the aerial moieties, and 0 means no damage, or normal course of growth. A good herbicidal activity is given at values of at least 70 and a very good herbicidal activity is given at values of at least 85.

Setaria faberi (SETFA) [2] = assay: greenhouse experiment, post-emergence treatment; settings: application rate 3 kg/ha, scale 0 to 100
Excerpt: as §1
(§5) For the post-emergence treatment, the test plants were first grown to a height of 3 to 15 cm, depending on the plant habit, and only then treated with the active ingredients which had been suspended or emulsified in water. For this purpose, the test plants were either sown directly and grown in the same containers, or they were first grown separately as seedlings and transplanted into the test containers a few days prior to treatment.
as §3, §4

SETIT = assay: greenhouse experiment, pre-emergence treatment; settings: application rate 3 kg/ha, scale 0 to 100
Excerpt: as §1, §2, §3, §4

Avena fatua (AVEFA) = assay: greenhouse experiment, post-emergence treatment; settings: application rate 3 kg/ha, scale 0 to 100
Excerpt: as §1, §5, §3, §4

[3] = system: Alopecurus myosuroides (ALOMY); assay: greenhouse experiment, post-emergence treatment; settings: application rate 3 kg/ha, scale 0 to 100
Excerpt: as §1, §5, §3, §4

[4] = system: Amaranthus retroflexus (AMARE); assay: greenhouse experiment, pre-emergence treatment; settings: application rate 0.5 kg/ha, scale 0 to 100
Excerpt: as §1, §2, §3, §4

[5] = system: Apera spica-venti (APESV); assay: greenhouse experiment, pre-emergence treatment; settings: application rate 0.5 kg/ha, scale 0 to 100
Excerpt: as §1, §2, §3, §4

Setaria faberi (SETFA) [6] = assay: greenhouse experiment, pre-emergence treatment; settings: application rate 3 kg/ha, scale 0 to 100
Excerpt: as §1, §2, §3, §4

| SMILES | herbicidal pre-emergence activity against ECHCG [1] | herbicidal post-emergence activity against SETFA (Setaria faberi (SETFA) [2]) | herbicidal pre-emergence activity against SETIT (SETIT) | other results |
| --- | --- | --- | --- | --- |
| CCS(=O)(=O)OC(c1ccccc1[N+](=O)[O-])C1C(=O)N(C)C(Cc2ccccc2)C(=O)N1C (centres unmarked) [A.2.275] | good to very good | good to very good |  |  |
| CC(Oc1ccc(CC2C(=O)N(C)C(Cc3ccccc3)C(=O)N2C)c([N+](=O)[O-])c1)C(=O)O (centres unmarked) [A.1.13] |  |  | good to very good |  |
| CC(C)=CCN1C(=O)C(Cc2ccccc2[N+](=O)[O-])N(C)C(=O)C1Cc1ccccc1 (single isomer, unassigned) [A.2.64] | good to very good | good to very good |  |  |
| CN1C(=O)C(C(OS(C)(=O)=O)c2ccccc2[N+](=O)[O-])N(C)C(=O)C1Cc1ccccc1 (single isomer, unassigned) [A.2.265] | good to very good | good to very good | good to very good |  |
| COS(=O)(=O)C(c1cccnc1Br)C1C(=O)N(C)C(Cc2ccccc2)C(=O)N1C (centres unmarked) [A.5.16, methyl (5-benzyl-1,4-dimethyl-3,6-dioxopiperazin-2-yl)-(2-bromopyridin-3-yl)methanesulfonate] |  |  | good to very good |  |
| CN1C(=O)C(Cc2ccccc2NS(C)(=O)=O)N(C)C(=O)C1Cc1ccccc1 (centres unmarked) [A.2.105] | good to very good |  |  | herbicidal post-emergence activity against AVEFA (Avena fatua (AVEFA)): very good (a very good herbicidal activity is given at values of at least 85); herbicidal post-emergence activity against ALOMY [3]: very good (a very good herbicidal activity is given at values of at least 85) |
| CC(C)OC(=O)CN1C(=O)C(Cc2ccccc2[N+](=O)[O-])N(C)C(=O)C1Cc1ccccc1 (single isomer, unassigned) [A.2.65] |  | good to very good |  |  |
| COS(=O)(=O)C(c1ccccc1[N+](=O)[O-])C1C(=O)N(C)C(Cc2cccs2)C(=O)N1C (centres unmarked) [A.5.17, methyl [1,4-dimethyl-3,6-dioxo-5-(thiophen-2-ylmethyl)piperazin-2-yl]-(2-nitrophenyl) methanesulfonate] |  |  |  | herbicidal pre-emergence activity against AMARE [4]: very good (a very good herbicidal activity is given at values of at least 85); herbicidal pre-emergence activity against APESV [5]: good (A good herbicidal activity is given at values of at least 70) |
| CN1C(=O)C(Cc2c(Br)cccc2[N+](=O)[O-])N(C)C(=O)C1Cc1ccccc1 (centres unmarked) [A.2.133] | good to very good | good to very good |  |  |
| C#Cc1ccccc1CC1C(=O)N(C)C(Cc2ccccc2)C(=O)N1C (centres unmarked) [A.2.135] | good to very good | good to very good | good to very good |  |
| CN1C(=O)C(C(OS(C)(=O)=O)c2ccccc2[N+](=O)[O-])N(C)C(=O)C1Cc1ccccc1 (single isomer, unassigned) [A.2.267] | good to very good | good to very good | good to very good |  |
| Cc1cc(-c2ccccc2CC2C(=O)N(C)C(Cc3ccccc3)C(=O)N2C)on1 (centres unmarked) [A.2.273] | good to very good | good to very good | good to very good |  |
| CC(=O)OC(c1ccccc1[N+](=O)[O-])C1C(=O)N(C)C(Cc2ccccc2)C(=O)N1C (centres unmarked) [A.2.251] |  | good to very good |  |  |
| CN1C(=O)C(Cc2ccccc2C#N)N(C)C(=O)C1Cc1ccccc1 (centres unmarked) [A.2.81] |  |  |  | herbicidal pre-emergence activity against SETFA (Setaria faberi (SETFA) [6]): very good (a very good herbicidal activity is given at values of at least 85) |
| CN1C(=O)C(C(OCc2ccccc2)c2ccccc2[N+](=O)[O-])N(C)C(=O)C1Cc1ccccc1 (centres unmarked) [A.2.255] |  | good to very good |  |  |
| C=Cc1ccccc1CC1C(=O)N(C)C(Cc2ccccc2)C(=O)N1C (centres unmarked) [A.2.274] | good to very good | good to very good |  |  |
| CN1C(=O)C(C(O[Si](C)(C)C)c2ccccc2[N+](=O)[O-])N(C)C(=O)C1Cc1ccccc1 (single isomer, unassigned) [A.2.271] |  |  | good to very good |  |
